{
  "source": "patent US4317768A",
  "about": "“Dihydropyridine derivatives as stabilizers for vinyl chloride polymers” (priority 1977, dated 1982)",
  "key": {"[1]": {"test": "Antioxidant power on a polyvinyl chloride resin, GARDNER method, 185° C.", "method": "(§1) By direct comparison, on a polyvinyl chloride resin, of the antioxidant power of Compound 1 of the invention and that of an antioxidant known as one of the most valuable and frequently used in polyvinyl chloride, namely 2,6-diterbutyl-4-methyl-phenol.\n(§2) The antioxidant power of Compound 1 was compared to that of 2,6-diterbutyl-4-methyl-phenol (Compound 2) by using the following resin:\nThe study was carried out according to the GARDNER method, the samples being removed from an oven at 185° C. every 10 minutes over a period of 80 minutes.\nThe signs + and - have the same meanings as in the previous table and > 2 means that the coloration lies between 2 and 2+."}, "[2]": {"test": "Antioxidant power on a polyvinyl chloride resin, GARDNER method, 185° C.", "remark": "listed apart in the source"}, "[3]": {"test": "Polarographic study of the oxidation potential", "assay_type": "physicochemical", "conditions": "acetonitrile, 0.1 M lithium perchlorate, vitrous carbon electrode, calomel reference", "text": "By a polarographic study of their oxidation potential, compared to well-known antioxidants such as 2,6-diterbutyl-4-methyl-phenol, 2-terbutyl-4-methoxy-phenol, 4-methoxy-phenol and hydroquinone.\nReference electrode: Calomel electrode containing a saturated solution of anhydrous lithium perchlorate as bridge liquid.\nWorking electrode: Vitrous carbon rotating electrode (2,500 r.p.m.)\nCounter-electrode: Platinum electrode\nAcetonitrile containing less than 0.1% of water and presenting no polarographic waves between -2.5 V and +2.5 V.\nAnhydrous lithium perchlorate containing less than 1% of water.\nA 0.1 M solution of lithium perchlorate in acetonitrile, treated and preserved on a 4 A molecular sieve.\nAmplitude of exploration: 0 to 2 V\nSpeed of exploration: 10 mV/second\nSensitivity: 1.25 μA to 50 μA\nMean concentration: about 0.3×10^-3 mol/liter\nBetween each measurement, the vitrous carbon electrode and the platinum electrode were carefully cleaned with Joseph paper."}, "[4]": {"test": "Antioxidant power on a polyvinyl chloride resin, Metrastat oven, 210° C.", "method": "as §1, §2\nThe same trials were carried out in a Metrastat oven at 210° C."}},
  "data": [
    {"smiles": "Cc1cc(C(C)(C)C)c(O)c(C(C)(C)C)c1", "note": "[Compound Z, 2,6-diterbutyl-4-methyl-phenol, reference compound]", "values": [
      {"measurement": "coloration, GARDNER scale", "setting": "[1]; 0.05 part, 0 min", "value": "> 1"},
      {"measurement": "coloration, GARDNER scale", "setting": "[1]; 0.05 part, 40 min", "value": "> 6"},
      {"measurement": "coloration, GARDNER scale", "setting": "[1]; 0.05 part, 50 min", "value": 7},
      {"measurement": "coloration, GARDNER scale", "setting": "[1]; 0.05 part, 60 min", "value": 7},
      {"measurement": "coloration, GARDNER scale", "setting": "[1]; 0.05 part, 70 min", "value": 8},
      {"measurement": "coloration, GARDNER scale", "setting": "[1]; 0.05 part, 80 min", "value": "Burnt"},
      {"measurement": "coloration, GARDNER scale", "setting": "[1]; 0.1 part, 0 min", "value": "> 1"},
      {"measurement": "coloration, GARDNER scale", "setting": "[1]; 0.1 part, 30 min", "value": "> 5"},
      {"measurement": "coloration, GARDNER scale", "setting": "[1]; 0.1 part, 40 min", "value": "> 6"},
      {"measurement": "coloration, GARDNER scale", "setting": "[1]; 0.1 part, 50 min", "value": 7},
      {"measurement": "coloration, GARDNER scale", "setting": "[1]; 0.1 part, 60 min", "value": 7},
      {"measurement": "coloration, GARDNER scale", "setting": "[1]; 0.1 part, 70 min", "value": 8},
      {"measurement": "coloration, GARDNER scale", "setting": "[1]; 0.2 part, 0 min", "value": "> 1"},
      {"measurement": "coloration, GARDNER scale", "setting": "[1]; 0.2 part, 40 min", "value": "> 6"},
      {"measurement": "coloration, GARDNER scale", "setting": "[1]; 0.2 part, 50 min", "value": 7},
      {"measurement": "coloration, GARDNER scale", "setting": "[1]; 0.2 part, 60 min", "value": 7},
      {"measurement": "coloration, GARDNER scale", "setting": "[1]; 0.2 part, 70 min", "value": 8},
      {"measurement": "coloration, GARDNER scale", "setting": "[1]; 0.3 part, 20 min", "value": "> 2"},
      {"measurement": "coloration, GARDNER scale", "setting": "[1]; 0.3 part, 30 min", "value": 6},
      {"measurement": "coloration, GARDNER scale", "setting": "[1]; 0.3 part, 40 min", "value": 7},
      {"measurement": "coloration, GARDNER scale", "setting": "[1]; 0.3 part, 50 min", "value": 8},
      {"measurement": "coloration, GARDNER scale", "setting": "[1]; 0.3 part, 60 min", "value": 8},
      {"measurement": "coloration, GARDNER scale", "setting": "[1]; 0.4 part, 20 min", "value": 3},
      {"measurement": "coloration, GARDNER scale", "setting": "[1]; 0.4 part, 30 min", "value": "> 6"},
      {"measurement": "coloration, GARDNER scale", "setting": "[1]; 0.4 part, 50 min", "value": 9},
      {"measurement": "coloration, GARDNER scale", "setting": "[1]; 0.4 part, 60 min", "value": 9},
      {"measurement": "coloration, GARDNER scale", "setting": "[1]; 0.4 part, 70 min", "value": 9},
      {"measurement": "coloration, GARDNER scale", "setting": "[1]; 0.5 part, 20 min", "value": 3},
      {"measurement": "coloration, GARDNER scale", "setting": "[1]; 0.5 part, 30 min", "value": "> 6"},
      {"measurement": "coloration, GARDNER scale", "setting": "[1]; 0.5 part, 40 min", "value": "> 7"},
      {"measurement": "coloration, GARDNER scale", "setting": "[1]; 0.5 part, 60 min", "value": 8},
      {"measurement": "coloration, GARDNER scale", "setting": "[1]; 0.5 part, 70 min", "value": 8},
      {"measurement": "coloration, GARDNER scale", "setting": "[1]; 1.0 part, 20 min", "value": "> 3"},
      {"measurement": "coloration, GARDNER scale", "setting": "[1]; 1.0 part, 30 min", "value": 8},
      {"measurement": "coloration, GARDNER scale", "setting": "[1]; 1.0 part, 40 min", "value": 8},
      {"measurement": "coloration, GARDNER scale", "setting": "[1]; 1.0 part, 50 min", "value": 8},
      {"measurement": "coloration, GARDNER scale", "setting": "[1]; 1.0 part, 60 min", "value": 9},
      {"measurement": "coloration, GARDNER scale", "setting": "[1]; 1.0 part, 70 min", "value": 9},
      {"measurement": "antioxidant power, Compound 1 vs Compound Z, in words", "setting": "[2]", "value": "no concentration in Compound Z gives the best results obtained with Compound 1"},
      {"measurement": "Oxidation potential", "setting": "[3]", "value": "1.11 ± 0.02", "unit": "volts"},
      {"measurement": "time of burning (B)", "setting": "[4]; 0.05 part", "value": "38 '"},
      {"measurement": "coloration, GARDNER scale", "setting": "[4]; 0.05 part, 10 to 20 min", "value": 2},
      {"measurement": "coloration, GARDNER scale", "setting": "[4]; 0.05 part, 30 to 35 min", "value": 10},
      {"measurement": "coloration, GARDNER scale", "setting": "[4]; 0.05 part, 35 to 40 min", "value": "> 10"},
      {"measurement": "time of burning (B)", "setting": "[4]; 0.1 part", "value": "39 '"},
      {"measurement": "coloration, GARDNER scale", "setting": "[4]; 0.1 part, 10 to 20 min", "value": 2},
      {"measurement": "coloration, GARDNER scale", "setting": "[4]; 0.1 part, 30 to 35 min", "value": 11},
      {"measurement": "coloration, GARDNER scale", "setting": "[4]; 0.1 part, 35 to 40 min", "value": "> 11"},
      {"measurement": "time of burning (B)", "setting": "[4]; 0.2 part", "value": "39 '"},
      {"measurement": "coloration, GARDNER scale", "setting": "[4]; 0.2 part, 10 to 20 min", "value": 2},
      {"measurement": "coloration, GARDNER scale", "setting": "[4]; 0.2 part, 30 to 35 min", "value": 11},
      {"measurement": "coloration, GARDNER scale", "setting": "[4]; 0.2 part, 35 to 40 min", "value": "> 11"},
      {"measurement": "time of burning (B)", "setting": "[4]; 0.3 part", "value": "39 '"},
      {"measurement": "coloration, GARDNER scale", "setting": "[4]; 0.3 part, 0 to 10 min", "value": "< 1"},
      {"measurement": "coloration, GARDNER scale", "setting": "[4]; 0.3 part, 25 to 30 min", "value": 3},
      {"measurement": "coloration, GARDNER scale", "setting": "[4]; 0.3 part, 30 to 35 min", "value": 9},
      {"measurement": "coloration, GARDNER scale", "setting": "[4]; 0.3 part, 35 to 40 min", "value": "< 10"},
      {"measurement": "time of burning (B)", "setting": "[4]; 0.4 part", "value": "38 '"},
      {"measurement": "coloration, GARDNER scale", "setting": "[4]; 0.4 part, 10 to 20 min", "value": 2},
      {"measurement": "coloration, GARDNER scale", "setting": "[4]; 0.4 part, 20 to 25 min", "value": 3},
      {"measurement": "coloration, GARDNER scale", "setting": "[4]; 0.4 part, 30 to 35 min", "value": 10},
      {"measurement": "coloration, GARDNER scale", "setting": "[4]; 0.4 part, 35 to 40 min", "value": "> 10"},
      {"measurement": "time of burning (B)", "setting": "[4]; 0.5 part", "value": "38 '"},
      {"measurement": "coloration, GARDNER scale", "setting": "[4]; 0.5 part, 10 to 20 min", "value": 2},
      {"measurement": "coloration, GARDNER scale", "setting": "[4]; 0.5 part, 20 to 25 min", "value": 3},
      {"measurement": "time of burning (B)", "setting": "[4]; 1.0 part", "value": "38 '"},
      {"measurement": "coloration, GARDNER scale", "setting": "[4]; 1.0 part, 10 to 20 min", "value": 2},
      {"measurement": "coloration, GARDNER scale", "setting": "[4]; 1.0 part, 25 to 30 min", "value": 5},
      {"measurement": "coloration, GARDNER scale", "setting": "[4]; 1.0 part, 30 to 35 min", "value": 11},
      {"measurement": "coloration, GARDNER scale", "setting": "[4]; 1.0 part, 35 to 40 min", "value": "> 11"},
      {"measurement": "colour of sheets, in words", "setting": "[4]; from the time zero", "value": "pink-coloured sheets"}
    ]}
  ]
}
